“And” between values parts separate entries of the source, which are not always exact repeats. Equal values may be shown once. Records with an inconclusive call do not appear.
Tested on: MX-1 breast xenograft, nude mice, tumor weight T/C
Assay: NCI In Vivo Anticancer Drug Screen. Data for tumor model Human Mammary Carcinoma MX-1 Xenograft (intrarenal inoculation) in NU/NU Swiss (nude) mice
Details: endpoint: mean tumor weight change, higher = larger tumour
Method in brief: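 Compound dosed to mice with transplantable tumor; vehicle group as control. Endpoint survival or tumour size, reported as T/C.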

[1] = dose: 100.0 mg/kg/injection, schedule: Q04DX003 (sc), vehicle: saline
[2] = dose: 200.0 mg/kg/injection, schedule: Q04DX003 (sc), vehicle: saline
[3] = dose: 400.0 mg/kg/injection, schedule: Q04DX003 (sc), vehicle: saline
[4] = dose: 150.0 mg/kg/injection, schedule: Q04DX003 (sc), vehicle: saline with Tween-80
[5] = dose: 300.0 mg/kg/injection, schedule: Q04DX003 (sc), vehicle: saline with Tween-80
[6] = dose: 600.0 mg/kg/injection, schedule: Q04DX003 (sc), vehicle: saline with Tween-80
[7] = dose: 37.5 mg/kg/injection, schedule: Q04DX003 (sc), vehicle: saline with Tween-80
[8] = dose: 75.0 mg/kg/injection, schedule: Q04DX003 (sc), vehicle: saline with Tween-80
[9] = dose: 300.0 mg/kg/injection, schedule: Q04DX003 (sc), vehicle: saline
[10] = dose: 600.0 mg/kg/injection, schedule: Q04DX003 (sc), vehicle: saline
[11] = dose: 75.0 mg/kg/injection, schedule: Q04DX003 (sc), vehicle: saline
[12] = dose: 150.0 mg/kg/injection, schedule: Q04DX003 (sc), vehicle: saline
[13] = dose: 400.0 mg/kg/injection, schedule: Q01DX010 (sc), vehicle: saline with Tween-80
[14] = dose: 800.0 mg/kg/injection, schedule: Q01DX010 (sc), vehicle: saline with Tween-80
[15] = dose: 100.0 mg/kg/injection, schedule: Q01DX010 (sc), vehicle: saline with Tween-80

SMILES: [N-]=[N+]=CC(=O)CCC(=O)C=[N+]=[N-]
- T/C (dose: 3.0 mg/kg/injection, schedule: Q01DX010 (sc), vehicle: DMSO): -72 % of control
- T/C (dose: 6.0 mg/kg/injection, schedule: Q01DX010 (sc), vehicle: DMSO): -42 % of control
- T/C (dose: 12.0 mg/kg/injection, schedule: Q01DX010 (sc), vehicle: DMSO): 5 % of control
- T/C (dose: 15.0 mg/kg/injection, schedule: Q04DX003 (sc), vehicle: DMSO): 6 % of control
- T/C (dose: 15.0 mg/kg/injection, schedule: Q04DX003 (sc), vehicle: saline): 23 % of control
- T/C (dose: 30.0 mg/kg/injection, schedule: Q04DX003 (sc), vehicle: DMSO): 3 % of control
- T/C (dose: 30.0 mg/kg/injection, schedule: Q04DX003 (sc), vehicle: saline): 16 % of control
- T/C (dose: 60.0 mg/kg/injection, schedule: Q04DX003 (sc), vehicle: saline): 6 % of control
- T/C (dose: 120.0 mg/kg/injection, schedule: Q04DX003 (sc), vehicle: DMSO): -13 % of control
- T/C (dose: 120.0 mg/kg/injection, schedule: Q04DX003 (sc), vehicle: saline): 8 % of control

SMILES: COc1cccc2c1C(=O)c1c(O)c3c(c(O)c1C2=O)C[C@@](O)(/C(C)=N/NC(=O)c1ccccc1)C[C@@H]3OC1CC(N)C(O)C(C)O1 (stereo partly specified)
- T/C (dose: 18.75 mg/kg/injection, schedule: Q04DX003 (sc), vehicle: water): 73 % of control
- T/C (dose: 37.5 mg/kg/injection, schedule: Q04DX003 (sc), vehicle: water): 25 % of control

SMILES: NCCCNCCSP(=O)(O)O
- T/C [1]: 98 % of control
- T/C [2]: 80 % of control
- T/C [3]: 91 % of control

SMILES: O=C1CN(Cc2ccc3c(c2)OCO3)NO1
- T/C [4]: 64 % of control
- T/C [5]: 42 % of control
- T/C [6]: 39 % of control

SMILES: CCOC(=O)Nc1cc2c(c(N)n1)N=C(c1ccc(Cl)cc1Cl)CN2
- T/C [7]: 79 % of control
- T/C [8]: 94 % of control
- T/C [4]: 103 % of control and 117 % of control
- T/C [5]: 81 % of control and 84 % of control

SMILES: C(COCCOCC1CO1)OCCOCC1CO1 (stereo unspecified)
- T/C [9]: 64 % of control
- T/C [10]: 29 % of control

SMILES: O=C(O)CCCc1ccc(N(CCCl)CCCl)cc1
- T/C (dose: 4.0 mg/kg/injection, schedule: Q01DX010 (sc), vehicle: saline with Tween-80): -6 % of control
- T/C (dose: 16.0 mg/kg/injection, schedule: Q01DX010 (sc), vehicle: saline with Tween-80): -65 % of control

SMILES: CCOC(=O)C(CC(C)C)NC(=O)C(Cc1ccc(N(CCCl)CCCl)cc1)NC(C)=O (stereo unspecified)
- T/C [7]: 50 % of control
- T/C [6]: -97 % of control and -96 % of control

SMILES: CN(C)CCCNc1c2ccccc2nc2cccc([N+](=O)[O-])c12
- T/C (dose: 0.37 mg/kg/injection, schedule: Q04DX003 (sc), vehicle: saline): 78 % of control

SMILES: CCC(C(=O)O)C(=O)O.[NH2-].[NH2-].[Pt+2]
- T/C [11]: -95 % of control
- T/C [12]: -82 % of control
- T/C [9]: -99 % of control

SMILES: CCOC(=O)C(N)CSC(=O)NC (stereo unspecified)
- T/C (dose: 112.0 mg/kg/injection, schedule: Q04DX003 (sc), vehicle: saline): 12 % of control
- T/C [9]: 33 % of control
- T/C [3]: 15 % of control
- T/C [10]: 8 % of control
- T/C (dose: 800.0 mg/kg/injection, schedule: Q04DX003 (sc), vehicle: saline): 3 % of control

SMILES: CCCCCCCCCCCCSC1=C(Cl)C(=O)C(OC)=C(OC)C1=O
- T/C [5]: 47 % of control
- T/C [6]: 77 % of control

SMILES: CC(C)(C)NC(C1=CC(C)(C)c2ccccc2C1=O)c1ccccc1 (stereo unspecified)
- T/C (dose: 150.0 mg/kg/injection, schedule: Q04DX003 (ip), vehicle: Klucel (hydroxypropylcellulose) (HPC)): 87 % of control
- T/C (dose: 300.0 mg/kg/injection, schedule: Q04DX003 (ip), vehicle: Klucel (hydroxypropylcellulose) (HPC)): 75 % of control

SMILES: CCC1=C[C@H]2CN(CCc3c([nH]c4ccccc34)[C@@](C(=O)OC)(c3cc4c(cc3OC)N(C)[C@H]3[C@@](O)(C(=O)OC)[C@H](OC(C)=O)[C@]5(CC)C=CCN6CC[C@]43[C@@H]65)C2)C1
- T/C (dose: 3.0 mg/kg/injection, schedule: Q04DX003 (sc), vehicle: water): 108 % of control
- T/C (dose: 6.0 mg/kg/injection, schedule: Q04DX003 (sc), vehicle: water): 84 % of control
- T/C (dose: 12.0 mg/kg/injection, schedule: Q04DX003 (sc), vehicle: water): 56 % of control

SMILES: COC1=C(OC)C(=O)C(C/C=C(\C)CC/C=C(\C)CC/C=C(\C)CC/C=C(\C)CC/C=C(\C)CC/C=C(\C)CC/C=C(\C)CC/C=C(\C)CC/C=C(\C)CCC=C(C)C)=C(C)C1=O
- T/C [13]: 153 % of control
- T/C [14]: 118 % of control

SMILES: CSc1nc(=O)[nH]nc1SCc1ccccc1
- T/C (dose: 200.0 mg/kg/injection, schedule: Q04DX003 (sc), vehicle: Klucel (hydroxypropylcellulose) (HPC)): 100 % of control
- T/C (dose: 400.0 mg/kg/injection, schedule: Q04DX003 (sc), vehicle: Klucel (hydroxypropylcellulose) (HPC)): 87 % of control
- T/C (dose: 800.0 mg/kg/injection, schedule: Q04DX003 (sc), vehicle: Klucel (hydroxypropylcellulose) (HPC)): 69 % of control
- T/C (dose: 1600.0 mg/kg/injection, schedule: Q04DX003 (sc), vehicle: Klucel (hydroxypropylcellulose) (HPC)): 60 % of control

SMILES: CN(C)CC(Cl)CCl (stereo unspecified)
- T/C [11]: 50 % of control
- T/C [12]: 85 % of control
- T/C [9]: 28 % of control

SMILES: C[Si](C)(CCl)N[Si](C)(C)CCl
- T/C [5]: 50 % of control
- T/C [6]: 35 % of control

SMILES: CN1CCN(c2ccc3nc(-c4ccc5nc(-c6ccc(O)cc6)[nH]c5c4)[nH]c3c2)CC1
- T/C [1]: 69 % of control
- T/C (dose: 225.0 mg/kg/injection, schedule: Q04DX003 (sc), vehicle: saline): 100 % of control
- T/C (dose: 225.0 mg/kg/injection, schedule: Q04DX003 (sc), vehicle: suspension in saline): 102 % of control
- T/C (dose: 250.0 mg/kg/injection, schedule: Q04DX003 (sc), vehicle: suspension in saline): 67 % of control
- T/C [3]: 52 % of control
- T/C (dose: 500.0 mg/kg/injection, schedule: Q04DX003 (sc), vehicle: saline): 123 % of control
- T/C (dose: 800.0 mg/kg/injection, schedule: Q04DX003 (sc), vehicle: suspension in saline): 176 % of control
- T/C (dose: 1000.0 mg/kg/injection, schedule: Q04DX003 (sc), vehicle: saline): 69 % of control
- T/C (dose: 1000.0 mg/kg/injection, schedule: Q04DX003 (sc), vehicle: suspension in saline): 199 % of control

SMILES: O=C(/C=C(\Cl)C(=O)NO)NO
- T/C (dose: 50.0 mg/kg/injection, schedule: Q04DX003 (sc), vehicle: saline): 93 % of control
- T/C [1]: 80 % of control
- T/C [2]: 77 % of control

SMILES: CC(=O)OC1=NC(C)c2c1cc(OC(C)=O)[nH]c2=O (stereo unspecified)
- T/C (dose: 300.0 mg/kg/injection, schedule: Q04DX003 (sc), vehicle: Klucel (hydroxypropylcellulose) (HPC)): 102 % of control
- T/C (dose: 600.0 mg/kg/injection, schedule: Q04DX003 (sc), vehicle: Klucel (hydroxypropylcellulose) (HPC)): 91 % of control
- T/C (dose: 1200.0 mg/kg/injection, schedule: Q04DX003 (sc), vehicle: Klucel (hydroxypropylcellulose) (HPC)): 70 % of control

SMILES: CC1=C(/C=C/C(C)=C/C=C/C(C)=C/C(=O)O)C(C)(C)CCC1
- T/C (dose: 25.0 mg/kg/injection, schedule: Q01DX010 (sc), vehicle: saline with Tween-80): 86 % of control
- T/C (dose: 50.0 mg/kg/injection, schedule: Q01DX010 (sc), vehicle: saline with Tween-80): 58 % of control
- T/C [15]: 52 % of control

SMILES: O=C[C@@H](CO)O[C@H](C=O)n1cnc2c(=O)[nH]cnc21
- T/C (dose: 100.0 mg/kg/injection, schedule: Q04DX003 (sc), vehicle: saline with Tween-80): 41 % of control
- T/C (dose: 200.0 mg/kg/injection, schedule: Q04DX003 (sc), vehicle: saline with Tween-80): 39 % of control and 63 % of control
- T/C [5]: 47 % of control

SMILES: C[n+]1c(-c2cccc3ccccc23)c2cc(N)ccc2c2ccccc21
- T/C (dose: 12.0 mg/kg/injection, schedule: Q04DX003 (sc), vehicle: saline): 103 % of control
- T/C (dose: 48.0 mg/kg/injection, schedule: Q04DX003 (sc), vehicle: saline): 92 % of control

SMILES: COc1cc(C[C@H]2c3cc(OC)c(OC)cc3CCN2C)c(Oc2cc3c(cc2OC)-c2c(OC)c(OC)cc4c2[C@H](C3)N(C)CC4)cc1OC
- T/C [15]: 95 % of control
- T/C (dose: 200.0 mg/kg/injection, schedule: Q01DX010 (sc), vehicle: saline with Tween-80): 67 % of control
- T/C [13]: 75 % of control
- T/C [14]: 71 % of control

SMILES: Nc1nc(N)c2c(Cl)c(CNc3ccc(Cl)c(Cl)c3)ccc2n1
- T/C (dose: 18.75 mg/kg/injection, schedule: Q04DX003 (sc), vehicle: saline with Tween-80): 80 % of control
- T/C [7]: 87 % of control
- T/C [8]: 93 % of control
- T/C [4]: 111 % of control
